Laboratory results reported in patent publication US6399654B1, “Biflavanoids and derivatives thereof as antiviral agents” (priority 1995, dated 2002).
pEC50: −log10 of the molar value. Converted amounts (≈) assume the structure as drawn. Read-outs that look alike come from different tables or passages of the source.

Tests used:
[1] = tested on: Influenza A (H1N1) Texas/36/91; test: microbe, parasite or virus in culture; type: cell-based, influenza A virus; conditions: Influenza A virus, MDCK; Influenza A (H1N1) Texas/36/91; read-out: CPE Inhibition EC50
[2] = tested on: Influenza A (H1N1) Texas/36/91; test: microbe, parasite or virus in culture; type: cell-based, influenza A virus; conditions: Influenza A virus, MDCK; Influenza A (H1N1) Texas/36/91; read-out: Neutral Red EC50
[3] = tested on: Influenza A (H3N2) Beijing/32/92; test: microbe, parasite or virus in culture; type: cell-based, influenza A virus; conditions: Influenza A virus, MDCK; Influenza A (H3N2) Beijing/32/92; read-out: CPE Inhibition EC50
[4] = tested on: Influenza A (H3N2) Beijing/32/92; test: microbe, parasite or virus in culture; type: cell-based, influenza A virus; conditions: Influenza A virus, MDCK; Influenza A (H3N2) Beijing/32/92; read-out: Neutral Red EC50
Influenza B Panama/45/90 = test: microbe, parasite or virus in culture; type: cell-based; conditions: Influenza B virus, MDCK; Influenza B Panama/45/90; read-out: CPE Inhibition EC50
Measles Virus [5] = test: microbe, parasite or virus in culture; type: cell-based
Measles Virus [6] = test: Measles virus neutral red dye uptake in BSC-1 cells; type: cell-based; conditions: Measles morbillivirus, BSC-1
Adenovirus Type 5 [7] = test: microbe, parasite or virus in culture; type: cell-based; conditions: Human mastadenovirus C, A549, read-out: CPE Inhibition EC50
Adenovirus Type 5 [8] = test: Adenovirus type 5 neutral red dye uptake in A549 cells; type: cell-based; conditions: Human mastadenovirus C, A549; Adenovirus Type 5; read-out: Neutral Red EC50
[9] = tested on: Parainfluenza Type 3 Virus; test: organism not typed; type: cell-based; conditions: MA104; Parainfluenza Type 3 Virus; read-out: CPI Inhibition EC50
[10] = tested on: Parainfluenza Type 3 Virus; test: organism not typed; type: cell-based; conditions: MA104, read-out: Neutral Red EC50
[11] = tested on: Respiratory Syncytial Virus; test: microbe, parasite or virus in culture; type: cell-based; conditions: human respiratory syncytial virus, MA104; read-out: CPE Inhibition EC50
[12] = tested on: Respiratory Syncytial Virus; test: microbe, parasite or virus in culture; type: cell-based; conditions: human respiratory syncytial virus, MA104; read-out: Neutral Red EC50
HIV-1 RT = molecular target: T1, HIV-1 RT (Human immunodeficiency virus type 1 group M subtype B, UniProt P03366); test: Anti-HIV-1 RT assay (recombinant enzyme); type: biochemical
T1 construct: made in house; host or cells: Escherichia coli

in vitro [13] = conditions: dog
in vitro [14] = conditions: dog, Neutral Red IC50 (cytotoxic)
in vitro [15] = conditions: African green monkey
in vitro [16] = conditions: human
in vitro [17] = conditions: African green monkey; remark: listed apart in the source
HCMV = HCMV CPE inhibition in HFF cells
HSV-1 = HSV-1 CPE inhibition in HFF cells
HSV-2 = HSV-2 CPE inhibition in HFF cells
VZV = VZV plaque reduction assay in HFF cells
[18] = Cytotoxicity by neutral red dye uptake, A549 cells; conditions: human
[19] = Cytotoxicity by neutral red dye uptake, BSC-1 cells; conditions: African green monkey
[20] = Cytotoxicity by neutral red dye uptake, MA-104 cells; conditions: African green monkey, Neutral Red IC50 (cytotoxic)
[21] = Cytotoxicity (CC50) in HFF cells in the herpes virus tests; conditions: human
HFF Cells = test: as above; conditions: HFF Cells, HSV-2 test
Hepatitis B Virus (HBV) = test: Inhibition of HBV replication in 2.2.15 cells, extracellular (virion) HBV DNA; conditions: for anti-HBV activity (in words): 2.2.15 cells;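 as to all read-outs here: extracellular virion HBV DNA in culture medium measured by slot blot hybridization with a 32P-labeled HBV probe, quantified against HBV DNA standards, after 9 days of daily dosing, compared with day 0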

O=C1CC(c2ccc(O)cc2)Oc2cc(O)c(-c3c(O)cc(O)c4c3OC(c3ccc(O)cc3)CC4=O)c(O)c21 (centres unmarked) [Rhusflavanone (9), rhusflavanone]
EC50 [1]: > 10 µg/mL
EC50 [2]: 24 µg/mL (≈ 44.2 µM)
EC50 [3]: > 32 µg/mL
EC50 [4]: 31 µg/mL (≈ 57.1 µM)
EC50 (Influenza B Panama/45/90): 4.1 µg/mL (≈ 7.56 µM)
activity against measles virus (in words) (Measles Virus [5]): some slight activity
EC50 (Measles Virus [5]; Measles morbillivirus, BSC-1, Measles Virus, read-out: CPI Inhibition EC50): 14 µg/mL (≈ 25.8 µM)
EC50 (Measles Virus [6]): 5 µg/mL (≈ 9.22 µM)
EC50 (Adenovirus Type 5 [7]): 56 µg/mL (≈ 103 µM)
EC50 (Adenovirus Type 5 [8]): 33 µg/mL (≈ 60.8 µM)
EC50 [9]: > 100 µg/mL
EC50 [10]: 85 µg/mL (≈ 157 µM)
EC50 [11]: > 10 µg/mL
EC50 [12]: 27 µg/mL (≈ 49.8 µM)
activity against HIV-1 RT (in words) (HIV-1 RT): completely inactive
inhibition at 200 µg/mL (HIV-1 RT; read-out: Anti-HIV-1 RT % Inhibition at 200 μg/ml): 14.1%
Anti-HIV-1 RT IC50 (HIV-1 RT; values in parentheses or in words): Inactive
IC50 (in vitro [13]; CPE Inhibition IC50 (50% cell inhibitory (cytotoxic) concentration), Influenza A (H1N1) test): 8.2 µg/mL (≈ 15.1 µM)
IC50 (in vitro [13]; CPE Inhibition IC50 (cytotoxic), Influenza A (H3N2) test): 24 µg/mL (≈ 44.2 µM)
IC50 (in vitro [13]; CPE Inhibition IC50 (cytotoxic), Influenza B test): 38 µg/mL (≈ 70 µM)
IC50 (in vitro [14]; Influenza A (H1N1) test): 26 µg/mL (≈ 47.9 µM)
IC50 (in vitro [14]; Influenza A (H3N2) test): 31 µg/mL (≈ 57.1 µM)
IC50 (in vitro [15]): 21 µg/mL (≈ 38.7 µM)
IC50 (in vitro [16]): 47 µg/mL (≈ 86.6 µM)
IC50 (in vitro [17]; CPE Inhibition IC50 (cytotoxic), Respiratory Syncytial Virus test): 18 µg/mL (≈ 33.2 µM)
IC50 (in vitro [17]; CPI Inhibition IC50 (cytotoxic), Parainfluenza Type 3 Virus test): 47 µg/mL (≈ 86.6 µM)
HCMV SI (CC50/EC50) (HCMV; HFF Cells): <3.4
EC50 (HCMV; Human betaherpesvirus 5, HFF, read-out: HCMV CPE Inhibition EC50): > 4 µg/mL
HSV-1 SI (CC50/EC50) (HSV-1; HFF Cells): 0
EC50 (HSV-1; Human alphaherpesvirus 1, HFF, read-out: HSV-1 CPE Inhibition EC50): > 100 µg/mL
activity against HSV-2 (in words) (HSV-2): active
HSV-2 SI (CC50/EC50) (HSV-2; HFF Cells): >6.4
EC50 (HSV-2; Human alphaherpesvirus 2, HFF, read-out: HSV-2 CPE Inhibition EC50): 15.7 µg/mL (≈ 28.9 µM)
VZV SI (CC50/EC50) (VZV; HFF Cells): <4
EC50 (VZV; Human alphaherpesvirus 3, HFF, read-out: VZV Plaque Reduction EC50): > 4 µg/mL
IC50 [18]: 15 µg/mL (≈ 27.6 µM)
IC50 [19]: 40 µg/mL (≈ 73.7 µM)
IC50 ([20]; Parainfluenza Type 3 Virus test): 30 µg/mL (≈ 55.3 µM)
IC50 ([20]; Respiratory Syncytial Virus test): 20 µg/mL (≈ 36.9 µM)
CC50 at 3 days [21]: > 100 µg/mL
CC50 at 10 days [21]: 16 µg/mL (≈ 29.5 µM)
CC50 at 14 days [21]: 13.7 µg/mL (≈ 25.3 µM)
HSV-2 CPE Inhibition CC50 (HFF Cells): >100 µg/mL
anti-HBV activity (in words) (Hepatitis B Virus (HBV); listed as rhusflavanone): inactive
anti-HBV activity (in words) (Hepatitis B Virus (HBV); listed as rhusflavanone (9)): little or no anti-HBV activity
pEC50 (Hepatitis B Virus (HBV); Hepatitis B virus, 216 h, read-out: EC50 (50% effective dose), HBV Virion, 2.2.15 cells, extracellular (virion) HBV DNA, 9 days treatment): < 4.00
EC90 (Hepatitis B Virus (HBV); Hepatitis B virus, 216 h, read-out: EC90 (90% effective dose), HBV Virion, 2.2.15 cells, extracellular (virion) HBV DNA, 9 days treatment): > 100 µM
